Literature values as cited in patent US20240000829A1, “COPOLYMER CONTAINING POLY(ETHYLENE GLYCOL) AND POLY(L-AMINO ACID DERIVATIVE), MICROPARTICLES THEREOF AND USE THEREOF IN PHARMACEUTICAL COMPOSITION” (University of Tsukuba, priority 2020, published 2024).

Tested on: patients with hepatic disorders such as hepatic cirrhosis
Conditions: reported; Non-Patent Document 1

Compound: NCCC[C@H](N)C(=O)O [L-ornithine]
- ammonia level / concentration: reduced ammonia levels
